Assay results from patent publication US20090176664A1, “High density peptide arrays containing kinase or phosphatase substrates” (priority 2007, published 2009).

Test system: Src and Abl kinases
Experiment: Kinase inhibition assay with different kinase inhibitors on peptide array with Abl and Src peptide substrates
Type: biochemical
Conditions: FIG. 23; Src and Abl kinases plus one of three inhibitors
Description: Activity is measured using peptide arrays with Abl and Src peptide substrates.

- specificity of the kinase inhibitor for their respective kinase: expected specificity
Structure (SMILES): COc1cc(Nc2c(C#N)cnc3cc(OCCCN4CCN(C)CC4)c(OC)cc23)c(Cl)cc1Cl [SKI606]
